Data as given in the supplement of paper PMC10307832.

Columns and labels:
Assay in all cases: relative viability (nuclei count vs DMSO), 5 days (fraction); higher = more cells survive
Idelalisib + Palbociclib = compound: CC[C@H](Nc1ncnc2[nH]cnc12)c1nc2cccc(F)c2c(=O)n1-c1ccccc1 [Idelalisib] + CC(=O)c1c(C)c2cnc(Nc3ccc(N4CCNCC4)cn3)nc2n(C2CCCC2)c1=O [Palbociclib] (partner 0.5 µM)
Summary of the method: (§1)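 Relative viability divides the nuclei count in treated wells by that in vehicle wells. Lung cancer cell lines were seeded in 1536-well plates, dosed by pin tool the next day, and fixed and stained after 5 days in one step with final 0.05% Triton X-100, 1% formaldehyde and 1 ug/ml Hoechst. Dosing was a single drug or a fixed anchor-drug dose plus five library-drug doses (not always all listed) in √10 steps, and values are medians of duplicate plates imaged at 4×.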

Pemetrexed + Navitoclax = compound: Nc1nc2[nH]cc(CCc3ccc(C(=O)N[C@@H](CCC(=O)O)C(=O)O)cc3)c2c(=O)[nH]1 [Pemetrexed] + CC1(C)CCC(c2ccc(Cl)cc2)=C(CN2CCN(c3ccc(C(=O)NS(=O)(=O)c4ccc(N[C@H](CCN5CCOCC5)CSc5ccccc5)c(S(=O)(=O)C(F)(F)F)c4)cc3)CC2)C1 [Navitoclax] (partner 0.5 µM)
Summary of the method: as §1

Pemetrexed + Decitabine = compound: Nc1nc2[nH]cc(CCc3ccc(C(=O)N[C@@H](CCC(=O)O)C(=O)O)cc3)c2c(=O)[nH]1 [Pemetrexed] + Nc1ncn([C@H]2C[C@H](O)[C@@H](CO)O2)c(=O)n1 [Decitabine] (partner 2 µM)
Summary of the method: as §1

Pemetrexed + Luminespib = compound: Nc1nc2[nH]cc(CCc3ccc(C(=O)N[C@@H](CCC(=O)O)C(=O)O)cc3)c2c(=O)[nH]1 [Pemetrexed] + CCNC(=O)c1noc(-c2cc(C(C)C)c(O)cc2O)c1-c1ccc(CN2CCOCC2)cc1 [Luminespib] (partner 0.01 µM)
Summary of the method: as §1

Cell Line	relative viability (Idelalisib + Palbociclib; first compound 0.04 µM)	relative viability (Idelalisib + Palbociclib; first compound 0.1265 µM)	relative viability (Idelalisib + Palbociclib; first compound 0.4 µM)	relative viability (Idelalisib + Palbociclib; first compound 1.265 µM)	relative viability (Idelalisib + Palbociclib; first compound 4 µM)	relative viability (Pemetrexed + Navitoclax; first compound 0.002 µM)	relative viability (Pemetrexed + Navitoclax; first compound 0.006325 µM)	relative viability (Pemetrexed + Navitoclax; first compound 0.02 µM)	relative viability (Pemetrexed + Navitoclax; first compound 0.06325 µM)	relative viability (Pemetrexed + Navitoclax; first compound 0.2 µM)	relative viability (Pemetrexed + Decitabine; first compound 0.002 µM)	relative viability (Pemetrexed + Decitabine; first compound 0.006325 µM)	relative viability (Pemetrexed + Decitabine; first compound 0.02 µM)	relative viability (Pemetrexed + Decitabine; first compound 0.06325 µM)	relative viability (Pemetrexed + Decitabine; first compound 0.2 µM)	relative viability (Pemetrexed + Luminespib; first compound 0.002 µM)	relative viability (Pemetrexed + Luminespib; first compound 0.006325 µM)	relative viability (Pemetrexed + Luminespib; first compound 0.02 µM)	relative viability (Pemetrexed + Luminespib; first compound 0.06325 µM)	relative viability (Pemetrexed + Luminespib; first compound 0.2 µM)
LU99A	0.41	0.424	0.357	0.429	0.39	0.73	0.75	0.774	0.87	0.748	0.802	0.753	0.947	0.865	0.887	0.264	0.233	0.318	0.261	0.19
LXF-289	0.592	0.667	0.601	0.687	0.627	0.881	1	0.994	0.993	0.929	0.363	0.393	0.38	0.403	0.404	0.687	0.648	0.731	0.639	0.651
NCI-H23	0.51	0.467	0.441	0.501	0.521	0.808	0.756	1.07	0.788	0.858	0.287	0.307	0.322	0.325	0.318	0.216	0.202	0.22	0.201	0.211
NCI-H322M	0.495	0.488	0.424	0.435	0.508	1.16	1.25	1.17	1.15	1.14	0.722	0.642	0.655	0.794	0.612	0.987	0.767	0.853	0.84	0.752
NCI-H441	0.231	0.155		0.23	0.182		0.457	0.605	0.6	0.48	0.2	0.308	0.244	0.232	0.215	0.35	0.328	0.33	0.393	0.328
NCI-H460	0.145	0.286	0.175	0.121	0.103	0.945	1.1	1.33	0.388	0.0669		0.468	0.507	0.323	0.0945	0.0265	0.0449	0.0346	0.0259	0.0265
NCI-H520	0.24	0.184	0.193	0.185	0.156	0.963	1.08	1.25	1.11	1.08	0.504	0.453	0.538	0.479	0.494	0.215	0.234	0.223	0.261	0.2
NCI-H647	0.393	0.319	0.25	0.242	0.219	1.13	0.987	1.15	0.954	0.308	0.263	0.366	0.515	0.39	0.233	0.21	0.189	0.257	0.17	0.131
NCI-H727	0.7	0.566	0.648	0.786	0.619	0.422	0.474	0.583	0.428	0.527	0.922	0.796	0.835	0.792	0.865		0.255	0.346	0.689	0.506
NCI-H838	0.207	0.262	0.186	0.213	0.171	1.17	1.12	1.33	0.893	0.361	0.475	0.45	0.516	0.365	0.274	0.234	0.246	0.309	0.197	0.156
NCI-H1355	0.415	0.407	0.333	0.364	0.312	0.86	0.885	0.951	0.942	0.872	0.33	0.354	0.336	0.332	0.355	0.737	0.662	0.656	0.693	0.715
NCI-H1395	0.636	0.615	0.595	0.564	0.453	1.06	1.14	1.24	1.11	1.11	0.681	0.71	0.85	0.697	0.74	0.8	0.718	0.678	0.528	0.758
NCI-H1437	0.334	0.413	0.318	0.361	0.325	0.988	1.05	1.02	0.575	0.291	0.528	0.577	0.555	0.443	0.359		1.06	0.997	0.856	0.487
NCI-H1650	0.361	0.338	0.297	0.324	0.291	1.08	1.11	1.37	1.15	0.632	0.426	0.32	0.545	0.249	0.317	0.192	0.18	0.199	0.178	0.183
NCI-H1651	0.518	0.524	0.489	0.522	0.442	0.906	0.977	1.01	0.938	0.968	0.525	0.593	0.631	0.404	0.653	0.845	0.792	0.965	0.983	0.732
NCI-H1666	0.615	0.6	0.645	0.689	0.645	0.877	0.717	0.915	0.711	0.419	0.637	0.724	0.712	0.594	0.612	1	0.942	1.01	1.01	0.839
